Series [1] has as its system K562, U937, Jurkat, T47-D, MCF7, BT20 and 184B5 cell lines. As to the kind of experiment: Cytotoxicity in malignant and immortalized cell lines (manual counting, Alamar assay). The series is classed as cell-based. Particulars: all of the cell lines tested. Here is the method:
These four compounds were added at different concentrations to cultures of various malignant cell lines and normal cells. The cell lines used for these tests were the following:
All leukemic cell lines were grown and used in logarithmic phase. After one day of treatment, the cells were isolated, counted and diluted in a regular growth medium to provide the cell density of about 75×10^3 cells/ml for reading on plates at 48 hours after the treatment, and […] for reading at 144 hours after the treatment.
Several dilutions of each compound tested were added to the wells (12 wells per plate, TPP), and 1 ml of cells from the parent solution was added per well after a line had been completed. The dilutions were made using the culture medium, and following dilutions were tested: control, which contained no compound of this invention; 1:100; 1:1,000; 1:2,000; 1:5,000; and 1:10,000. The starting concentrations for these dilutions were: 50 mg/ml for compound A; 10 mg/ml for compound B; 25 mg/ml for compound C; and 5 mg/ml for compound D. The results were analyzed by manual counting and Alamar reduced assay.
The cells were grown on their respective propagation medium and seeded 24 hours before the compounds are added. The cells were trypsinized, and 50,000 cells/well and 10,000 cells/well were seeded in order to read the plates at 48 hours and 144 hours after being treated by the compounds, respectively.
On the day of the treatment, the medium was replaced by 10 ml each of series dilution of the compounds, consisting of: control, which contained no compound of this invention; 1:100 dilution; 1:1,000 dilution; 1:2,000 dilution; and 1:5,000 dilution. The starting concentrations for these dilutions were: 50 mg/ml for compound A; 10 mg/ml for compound B; 25 mg/ml for compound C; and 5 mg/ml for compound D. The dilution was made using the growth medium.
A tested compound is regarded as being active in cytotoxicity where the percentage of surviving cells after the treatment with the compound is less than 30%.

Series [2] has as its system blastic cells from AML patients. As to the kind of experiment: Inhibition of viability of fresh leukemic cells (trypan blue exclusion). The format is cell-based, human. To be noted: day 3; for In Vitro Percent Inhibition of Viability, MEAN: MEAN over AML patients. Here is the method:
Samples for AML 1 through 5, AML 1 being the least and AML 5 being the most differentiated, were obtained. […] Cells were incubated with or without […] anti-histamine derivatives. Polaramine was included as a negative control. Cell counts were assessed by trypan blue exclusion test at day 3 after the incubation. Morphological analysis was performed using Wright-Giemsa staining on cytocentrifuge preparations. The results were expressed as % inhibition of growth as compared to negative control.

For series [3], the system named is K562, U937, MDA-DB231, BT20 and MCF7 cell lines. As to the kind of experiment: Cytotoxic effects in multi-well plate, 6 days, ATP level (CellTiter-Glo). Particulars: 2x10^-9 M to 2x10^-4 M. Here is the method: In order to test the cytotoxic effects of various compounds, a test was developed in a multi-well plate. Two leukemic cell lines, namely K562 and U937, and three breast cancer cell lines, namely MDA-DB231, BT20 and MCF7 were used for this test.
The cells were seeded at low density and were left for 24 hours to recover and reach a new logarithmic phase of growth. Various concentrations of the compounds being tested, ranging from 2×10^−9 M to 2×10^−4 M, were added in triplicate. The mixture was incubated for 6 days, during which approximately 4 doublings of the cell population occurred, to allow the cells to reach subconfluence.
The viability of the cultured cells after the treatment by the compounds was determined by quantifying the level of ATP since the level of ATP is directly proportional to the number of viable cells present in the culture. The ATP level was quantified by using CellTiter-Glo™ (Promega) luminescent test for cell viability.

Counter-ions that a name gives are not always drawn.

In the case of `CN(C)CC[C@@H](c1ccc(Cl)cc1)c1ccccn1` [D, dexchlorpheniramine maleate], the cytotoxic activity result in series [1] is listed as “little or no cytotoxic activity”. In addition, in series [2] (Homo sapiens, 72 h, patient ID 14, FAB AML5, 10^-5 M, read-out: In Vitro Percent Inhibition of Viability), the cytotoxicity at 10 µM is 9%.

`OCCN1CCN(CC/C=C2/c3ccccc3Sc3ccc(C(F)(F)F)cc32)CC1` [i41, flupentixol]: the cytotoxic effect group result in series [3] is reported as “I”. The entries for the “In Vitro Percent Inhibition of Viability, MEAN” value in series [2] (10^-5 M) and in series [2] (10^-6 M) were 50% and 24%, respectively. The “In Vitro Percent Inhibition of Viability” value in series [2] (patient ID 1, FAB AML1, 10^-5 M) stood at 20%; in series [2] (patient ID 1, FAB AML1, 10^-6 M) it was 25%; in series [2] (patient ID 2, FAB AML1, 10^-5 M), 30%; in series [2] (patient ID 2, FAB AML1, 10^-6 M) it was 0%; in series [2] (patient ID 3, FAB AML2, 10^-5 M) it was 68%; in series [2] (patient ID 3, FAB AML2, 10^-6 M), 34%. The “In Vitro Percent Inhibition of Viability” value in series [2] (patient ID 4, FAB AML2, 10^-5 M) worked out at 38%; in series [2] (patient ID 4, FAB AML2, 10^-6 M), 35%; in series [2] (patient ID 5, FAB AML2, 10^-5 M) it was 40%; in series [2] (patient ID 5, FAB AML2, 10^-6 M), 1%; in series [2] (patient ID 6, FAB AML3, 10^-5 M), 85%; in series [2] (patient ID 6, FAB AML3, 10^-6 M), 24%. For the same compound, the “In Vitro Percent Inhibition of Viability” value was 50% in series [2] (patient ID 7, FAB AML3, 10^-5 M); 30% in series [2] (patient ID 7, FAB AML3, 10^-6 M); 46% in series [2] (patient ID 8, FAB AML3, 10^-5 M); 38% in series [2] (patient ID 8, FAB AML3, 10^-6 M); 97% in series [2] (patient ID 9, FAB AML3, 10^-5 M); 23% in series [2] (patient ID 9, FAB AML3, 10^-6 M). The “In Vitro Percent Inhibition of Viability” value is 55% in series [2] (patient ID 10, FAB AML4, 10^-5 M); 33% in series [2] (patient ID 10, FAB AML4, 10^-6 M); 75% in series [2] (patient ID 11, FAB AML5, 10^-5 M); 36% in series [2] (patient ID 11, FAB AML5, 10^-6 M); 55% in series [2] (patient ID 12, FAB AML5, 10^-5 M); 40% in series [2] (patient ID 13, FAB AML5, 10^-5 M). Further, the “In Vitro Percent Inhibition of Viability” value in series [2] (patient ID 13, FAB AML5, 10^-6 M) was found to be 24%; in series [2] (patient ID 14, FAB AML5, 10^-5 M), 25%; in series [2] (patient ID 14, FAB AML5, 10^-6 M), 23%; in series [2] (patient ID 15, FAB AML5, 10^-5 M), 27%; in series [2] (patient ID 15, FAB AML5, 10^-6 M), 16%.
